Laboratory results taken from publication PMC11187126, “Structure and dynamics of the pyroglutamylated RF-amide peptide QRFP receptor GPR103” (Nature Communications, 2024).
Read-outs that look alike come from different tables or passages of the source. No end group written: not given here.

Biological target: T1, GPR103 T215^5.39A (Homo sapiens, UniProt Q96P65, T215A)
T1 construct: we used human full-length QRFPR-encoding plasmids; expressed in transfected cells; host or cells: HEK293 cells (HEK293A in the flow cytometry section), pCAGGS vector
T1 sequence (Q96P65 1-431 T215A): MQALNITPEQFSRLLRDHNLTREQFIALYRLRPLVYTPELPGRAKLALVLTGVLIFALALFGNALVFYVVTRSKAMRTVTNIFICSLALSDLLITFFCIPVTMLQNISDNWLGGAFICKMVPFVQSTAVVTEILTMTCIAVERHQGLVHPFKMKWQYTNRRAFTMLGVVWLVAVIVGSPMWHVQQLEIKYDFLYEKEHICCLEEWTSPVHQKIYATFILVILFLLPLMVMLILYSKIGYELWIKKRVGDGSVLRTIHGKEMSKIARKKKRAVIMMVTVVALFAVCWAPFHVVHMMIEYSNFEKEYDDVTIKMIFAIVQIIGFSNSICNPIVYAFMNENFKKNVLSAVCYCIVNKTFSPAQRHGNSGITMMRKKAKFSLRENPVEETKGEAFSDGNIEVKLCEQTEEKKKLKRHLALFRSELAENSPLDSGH
Assay: TGFα shedding assay; Exp. level WT (1:1)
Format: cell-based
Description: For the TGFα shedding assay and the flow cytometry analysis, we used human full-length QRFPR-encoding plasmids. Specifically, GPR103 was N-terminally modified with an HA signal sequence followed by a FLAG epitope and then a flexible linker ([…]; the FLAG epitope is underlined) and inserted into the pCAGGS vector. Plasmid encoding GPR103 mutants were generated using Quickchange Site-Directed Mutagensis kit (Agilent).
The TGFα shedding assay was performed as described previously with minor modifications. Plasmid transfection was performed in a 6-well plate with a mixture of 500 ng (per well in a 6-well plate) AP-TGFα-encoding plasmid and 200 ng GPR103-encoding plasmid. After 1-day culture, the transfected cells were harvested by trypsinization, pelleted by centrifugation at 190 × g for 5 min, and washed once with 5 mM HEPES (pH 7.4)-containing Hank’s Balanced Salt Solution (HBSS). After centrifugation, the cells were resuspended in 8 mL of the HEPES-containing HBSS. The cell suspension was seeded in a 96-well culture plate (cell plate) at a volume of 90 μL (per well hereafter) and incubated in a 37 °C incubator with 5% CO2 for 30 min. […] After spinning the cell plates at 190 × g for 2 min, 80 μL of conditioned media was transferred to an empty 96-well plate (conditioned media (CM) plate). Then, 80 μL of AP reaction solution (10 mM p-nitrophenylphosphate (p-NPP), 120 mM Tris-HCl (pH 9.5), 40 mM NaCl, and 10 mM MgCl2) was dispensed into the cell plates and the CM plates. Absorbance at 405 nm of the plates was measured using a microplate reader (SpectraMax 340 PC384, Molecular Devices) before and after 1-h incubation at room temperature. Ligand-induced AP-TGFα release was calculated by subtracting spontaneous AP-TGFα release signal from ligand-induced AP-TGFα release signal. The AP-TGFα release signals were fitted to a four-parameter sigmoidal concentration–response curve, using the Prism 10 software (GraphPad Prism). For each replicate experiment, the pEC50 parameter (negative logarithmic values of EC50 values) of the individual GPR103 mutants were normalized to that of the wild-type GPR103 performed in parallel, and resulting ∆pEC50 values were used to denote ligand response activity of the mutants. […]
Exp. le vel: WT (1:5 0)Exp. le vel: WT (1:5 0)Exp. le vel: WT (1:5 0)Exp. le vel: WT (1:2 0)Exp. le vel: WT (1:2 0)Exp. le vel: WT (1:1 0) […]
L1 4N - t e r mA F2 5N - t e r mA I 2 6N - t e r mA Y 2 9N - t e r mA C 9 82 .5 7A T10 22 .6 1A Exp . l eve l: WT (1 :5)Exp . l evel : >WT (1 :1)Exp. le vel: WT (1:2 0)Exp. le vel: WT (1:2 0)Exp. le vel: WT (1:5 0)Exp . l eve l: WT (1 :1) […]
Exp. le vel: WT (1:1 0)Exp. le vel: WT (1:2 0) C 1 1 83 .2 5AExp. le vel: WT (1:5 0)Exp. le vel: WT (1:5 0)Exp. le vel: WT (1:2 0)Exp . l eve l: WT (1 :5) […]
Exp. le vel: WT (1:5 0)Exp. le vel: WT (1:1 0)Exp. le vel: WT (1:5 0) E203ECL2AExp . l evel : >WT (1 :1)Exp. le vel: WT (1:5 0)Exp. le vel: WT (1:5 0) […]
Exp . l eve l: WT (1 :1) F28Exp. le vel: WT (1:5 0) C 2 8 56 .4 7AExp. le vel: WT (1:2 0) WExp. le vel: WT (1:2 0) F28Exp. le vel: WT (1:5 0)Exp . l evel : >WT (1 :1) […]
Exp. le vel: WT (1:5 0)Exp. le vel: WT (1:5 0) C 3 2 77 .4 8AExp . l eve l: WT (1 :5)Exp . l evel : >WT (1 :1)Exp . l evel : >WT (1 :1) […]
Suppl eme nt ary Figure 1 | Mutational analysis of GPR103. […]
mutants. Data are presented as mean values ± SEM, normally n=3-5; dots), each performed in triplicate. b-d Cell-surface expression (b) and QRFP26-in-duced activation of GPR103 (c, d) were analyzed by the flow cytometry and the TGFα shedding assay, respectively. From the concentration–response curves (a), Emax (c) and ΔpEC50 (d) values relative to the wild type were calculated. Colors in the mutant bars indicate an expression level matching to that of titrated wild type. Statistical analyses were performed using the ordinary one-way ANOVA followed by Dunnett tests with the expression-matched […]

Substance: TSGPLGNLAEELNGYSRKKGGFSFRF-NH2 [QRFP26]
- Emax (Exp. #1): 95.52 % WT
- Emax (Exp. #2): 99.37 % WT
- Emax (Exp. #3): 104.64 % WT
- Emax (mean, read-out: Emax): 99.8%
- EC50 (n = 3): 6.46 nM
- Emax (n = 3, read-out: Emax): 103 ± 2.2%
